According to the NIST ThermoML archive (doi:10.1016/j.jct.2011.10.012):
“And” between values parts separate entries of the source, which are not always exact repeats. Equal values may be shown once.

Details: for viscosity: 101.33 kPa, Cone and plate viscometry; for viscosity / mass density: Liquid; for mass density: Vibrating tube method; for surface tension liquid-gas: Wilhelmy plate

CCCCCCCCCCCCCC[P+](CCCCCC)(CCCCCC)CCCCCC.FC(F)(F)C(F)(F)[P-](F)(F)(F)(C(F)(F)C(F)(F)F)C(F)(F)C(F)(F)F
Details | surface tension liquid-gas [mN/m] | viscosity
283.09 K | – | 975.8 mPa·s and 976.8 mPa·s
283.1 K | – | 991.3 mPa·s and 992.8 mPa·s and 989.8 mPa·s
288.13 K | – | 697.9 mPa·s [middle of 4 runs]
293.07 K | – | 504.6 mPa·s [middle of 5 runs]
298.15 K | – | 335.9 mPa·s and 336.5 mPa·s
298.51 K | 28.99 | –
303.15 K | – | 256.1 mPa·s [middle of 5 runs]
305.16 K | 28.68 | –
308.15 K | – | 196 mPa·s [middle of 6 runs]
309.15 K | 28.44 | –
313.15 K | – | 151.2 mPa·s [middle of 8 runs]
313.65 K | 28.14 | –
318.15 K | – | 118.8 mPa·s [middle of 8 runs]
319.7 K | 27.8 | –
323.15 K | – | 96.4 mPa·s [middle of 15 runs]
325.35 K | 27.58 | –
328.15 K | – | 79.6 mPa·s [middle of 11 runs]
330.62 K | 27.28 | –
333.15 K | – | 65 mPa·s [middle of 13 runs]
337.9 K | 26.85 | –
338.15 K | – | 54 mPa·s [middle of 13 runs]
343.15 K | – | 44.3 mPa·s [middle of 9 runs]
343.29 K | 26.57 | –
348.15 K | – | 37.5 mPa·s [middle of 9 runs]
353.15 K | – | 32.1 mPa·s [middle of 8 runs]
358.15 K | – | 27.9 mPa·s and 28 mPa·s and 28.1 mPa·s
358.17 K | – | 28.2 mPa·s and 28.1 mPa·s and 28 mPa·s
363.17 K | – | 24.5 mPa·s and 24.4 mPa·s
363.18 K | – | 24.6 mPa·s and 24.5 mPa·s
363.2 K | – | 24.6 mPa·s and 24.5 mPa·s

mass density [kg/m3]
Details | 100 kPa | 2000 kPa | 3000 kPa | 5000 kPa | 10000 kPa | 15000 kPa | 20000 kPa | 25000 kPa
293.15 K | 1185.6 | 1187 | 1187.7 | 1189.2 | 1192.6 | 1196.1 | 1199.4 | 1202.6
298.15 K | 1181.8 | 1183.2 | 1183.9 | 1185.4 | 1189 | 1192.5 | 1195.8 | 1199.1
303.15 K | 1177.9 | 1179.4 | 1180.1 | 1181.6 | 1185.3 | 1188.9 | 1192.3 | 1195.6
308.15 K | 1174 | 1175.5 | 1176.3 | 1177.8 | 1181.5 | 1185.2 | 1188.7 | 1192.1
313.15 K | 1170.1 | 1171.6 | 1172.4 | 1174 | 1177.8 | 1181.5 | 1185.1 | 1188.6
318.15 K | 1166.2 | 1167.7 | 1168.5 | 1170.2 | 1174.1 | 1177.8 | 1181.5 | 1185
323.15 K | 1162.3 | 1163.8 | 1164.6 | 1166.3 | 1170.3 | 1174.1 | 1177.8 | 1181.4
328.15 K | 1158.3 | 1159.9 | 1160.7 | 1162.4 | 1166.5 | 1170.4 | 1174.2 | 1177.8
333.15 K | 1154.4 | 1155.9 | 1156.8 | 1158.5 | 1162.7 | 1166.7 | 1170.5 | 1174.2
338.15 K | 1150.4 | 1152 | 1152.9 | 1154.6 | 1158.9 | 1162.9 | 1166.8 | 1170.5
343.15 K | 1146.4 | 1148 | 1148.9 | 1150.7 | 1155 | 1159.1 | 1163.1 | 1166.9
